From patent US20220348572A1, “BRIDGED HETEROCYCLYL-SUBSTITUTED PYRIMIDINE COMPOUND, PREPARATION METHOD THEREFOR, AND PHARMACEUTICAL USE THEREOF” (The National Institutes of Pharmaceutical R&D Co., Ltd., priority 2019, published 2022)

target: T1, JAK1 kinase (Homo sapiens, UniProt P23458); experiment: In vitro inhibitory activity on JAK1 kinase (ADP-Glo Kinase Assay); assay type: biochemical; details: JAK1 kinase 4 nM, 1 mM ATP
T1 construct: purchased Invitrogen PV4744
Procedure: Test Example 1: Determination of In Vitro Inhibitory Activity of the Compounds of the Present Invention on JAK1 Kinase Experimental materials: JAK1 kinase (Invitrogen, PV4744), ATP (Promega, V915B), ADP-Glo Kinase Assay (Promega, V9101), IRS1 (Signalchem, 140-58-1000). Sample preparation: The compounds of the present invention and the control product were dissolved in DMSO solvent respectively to formulate into 10 mM initial liquid. The maximum concentration of the compound was 10 μM, 3-fold dilution, 10 concentration gradients, and duplicate wells for each concentration gradient. Experimental processs: 0.1 μL of the compound to be tested was transferred into a 384 reaction plate (PE, 6007290) via Echo and centrifuged at 1000 rpm/min for 1 min. 5 μL JAK1 kinase (final concentration of 4 nM) was transferred into the 384 reaction plate, which was then centrifuged at 1000 rpm/min for 1 min, and incubated at 25° C. for 15 min. 5 μL substrate mixture (1 mM ATP, IRS1 0.05 mg/ml, kinase buffer solution) was transferred into the 384 reaction plate, which was then centrifuged at 1000 rpm/min for 1 min, and incubated at 25° C. for 60 min. 10 μL ADP-Glo was transferred into the 384 reaction plate, which was then centrifuged at 1000 rpm/min for 1 min, and incubated at 25° C. for 40 min. 20 μL test solution was transferred into the 384 reaction plate, which was then centrifuged at 1000 rpm/min for 1 min and incubated at 25° C. for 40 min. RLU (Relative luminescence unit) signal was read by using an Envision multifunctional plate reader. The signal intensity was used to characterize the degree of the kinase activity. […] IC50 value of 0-100 nM is shown as A, IC50 value of 100-300 nM is shown as B, IC50 value of 300-1000 nM is shown as C, and IC50 value which is greater than 1000 nM is shown as D. NT means not tested.

T1 sequence (P23458 866-1154 limits assumed): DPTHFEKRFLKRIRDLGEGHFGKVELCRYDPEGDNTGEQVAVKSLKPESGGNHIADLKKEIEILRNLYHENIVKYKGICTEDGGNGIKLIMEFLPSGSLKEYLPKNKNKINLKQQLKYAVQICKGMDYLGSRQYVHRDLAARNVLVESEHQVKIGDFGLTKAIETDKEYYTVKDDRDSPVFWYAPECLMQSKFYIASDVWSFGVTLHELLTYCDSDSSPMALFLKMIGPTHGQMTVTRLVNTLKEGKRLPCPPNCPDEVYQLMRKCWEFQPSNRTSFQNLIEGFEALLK

SMILES	IC50
Cn1cc(Nc2ncc(C#N)c(C3=CC4CCC(C3)N4C(=O)NCC(F)(F)F)n2)cn1 (stereo not drawn) [Compound 35, 3-(5-cyano-2-((1-methyl-1H-pyrazol-4-yl)amino)pyrimidin-4-yl)-N-(2,2,2-trifluoroethyl)-8-azabicyclo[3.2.1]oct-2-ene-8-carboxamide]	100 to 300 nM
O=C([C@@H]1CC1(F)F)N1C2C=C(c3ccnc(Nc4cnn(CCO)c4)n3)CC1CC2 (stereo partly drawn) [Compound 40, ((S)-2,2-difluorocyclopropyl)(3-(2-((1-(2-hydroxyethyl)-1H-pyrazol-4-yl)amino)pyrimidin-4-yl)-8-azabicyclo[3.2.1]oct-2-en-8-yl)methanone]	100 to 300 nM
Cn1cc(Nc2nccc(C3=CC4CCC(C3)N4C(=O)C34CC(C(F)(F)F)(C3)C4)n2)cn1 (stereo not drawn) [Compound 71, (3-(2-((1-methyl-1H-pyrazol-4-yl)amino)pyrimidin-4-yl)-8-azabicyclo[3.2.1]oct-2-en-8-yl)(3-(trifluoromethyl)bicyclo[1.1.1]pentan-1-yl)methanone]	> 1000 nM
Cn1cc(Nc2ncc(C(F)(F)F)c(C3=CC4CCC(C3)N4C(=O)NCC(F)(F)F)n2)cn1 (stereo not drawn) [Compound 25, 3-(2-((1-Methyl-1H-pyrazol-4-yl)amino)-5-(trifluoromethyl)pyrimidin-4-yl)-N-(2,2,2-trifluoroethyl)-8-azabicyclo[3.2.1]oct-2-ene-8-carboxamide]	300 to 1000 nM
Cn1cc(Nc2ncc(Cl)c(C3=CC4CCC(C3)N4C(=O)NCC(F)(F)F)n2)cn1 (stereo not drawn) [Compound 20, 3-(5-chloro-2-((1-methyl-1H-pyrazol-4-yl)amino)pyrimidin-4-yl)-N-(2,2,2-trifluoroethyl)-8-azabicyclo[3.2.1]oct-2-ene-8-carboxamide]	< 100 nM
NC(=O)Cn1cc(Nc2nccc(C3=CC4CCC(C3)N4C(=O)[C@@H]3CC3(F)F)n2)cn1 (stereo partly drawn) [Compound 38, 2-(4-((4-(8-((S)-2,2-Difluorocyclopropane-1-formyl)-8-azabicyclo[3.2.1]oct-2-en-3-yl)pyrimidin-2-yl)amino)-1H-pyrazol-1-yl)acetamide]	< 100 nM
Cc1cnc(Nc2cnn(CC(C)(C)O)c2)nc1C1=CC2CCC(C1)N2C(=O)NCC(F)(F)F (stereo not drawn) [Compound 29, 3-(2-((1-(2-hydroxy-2-methylpropyl)-1H-pyrazol-4-yl)amino)-5-methylpyrimidin-4-yl)-N-(2,2,2-trifluoroethyl)-8-azabicyclo[3.2.1]oct-2-ene-8-carboxamide]	< 100 nM
Cc1cnc(Nc2cnn(C)c2)nc1C1=C[C@H]2CC[C@@H](C1)N2C(=O)NCC(F)(F)F [Compound 19-b, (1R,5S)-3-(5-methyl-2-((1-methyl-1H-pyrazol-4-yl)amino)pyrimidin-4-yl)-N-(2,2,2-trifluoroethyl)-8-azabicyclo[3.2.1]oct-2-ene-8-carboxamide]	< 100 nM
Cc1cnc(Nc2cnn(C)c2)nc1C1=C[C@@H]2CC[C@H](C1)N2C(=O)[C@@H]1CC1(F)F [Compound 22-a, ((S)-2,2-difluorocyclopropyl)((1S,5R)-3-(5-methyl-2-((1-methyl-1H-pyrazol-4-yl)amino)pyrimidin-4-yl)-8-azabicyclo[3.2.1]oct-2-en-8-yl)methanone]	100 to 300 nM
Cc1cnc(Nc2cn(C)nc2C)nc1C1=C[C@H]2CC[C@@H](C1)N2C(=O)NCC(F)(F)F [Compound 26-b, (1R,5S)-3-(2-((1,3-dimethyl-1H-pyrazol-4-yl)amino)-5-methylpyrimidin-4-yl)-N-(2,2,2-trifluoroethyl)-8-azabicyclo[3.2.1]oct-2-ene-8-carboxamide]	< 100 nM
Cc1cnc(Nc2cnn(C)c2)nc1C1=CC2CCC(C1)N2C(=O)NCC(F)(F)F (stereo not drawn) [Compound 19, 3-(5-methyl-2-((1-methyl-1H-pyrazol-4-yl)amino)pyrimidin-4-yl)-N-(2,2,2-trifluoroethyl)-8-azabicyclo[3.2.1]oct-2-ene-8-carboxamide]	< 100 nM
Cn1cc(Nc2nccc(C3=CC4CCC(C3)N4C3(CC#N)CN(C(=O)NCC(F)(F)F)C3)n2)cn1 (stereo not drawn) [Compound 86, 3-(cyanomethyl)-3-(3-(2-((1-methyl-1H-pyrazol-4-yl)amino)pyrimidin-4-yl)-8-azabicyclo[3.2.1]oct-2-en-8-yl)-N-(2,2,2-trifluoroethyl)azetidine-1-carboxamide]	> 1000 nM
O=C(NCC(F)(F)F)N1C2C=C(c3ccnc(Nc4cnn(CCO)c4)n3)CC1CC2 (stereo not drawn) [Compound 42, 3-(2-((1-(2-hydroxyethyl)-1H-pyrazol-4-yl)amino)pyrimidin-4-yl)-N-(2,2,2-trifluoroethyl)-8-azabicyclo[3.2.1]oct-2-ene-8-carboxamide]	< 100 nM
Cn1cc(Nc2nccc(C3=CC4CCC(C3)N4CC3(C)COC3)n2)cn1 (stereo not drawn) [Compound 87, N-(1-methyl-1H-pyrazol-4-yl)-4-(8-((3-methyloxetan-3-yl)methyl)-8-azabicyclo[3.2.1]oct-2-en-3-yl)pyrimidin-2-amine]	> 1000 nM
O=C(NCC(F)(F)F)N1C2C=C(c3nc(Nc4cnn(C(F)F)c4)ncc3F)CC1CC2 (stereo not drawn) [Compound 24, 3-(2-((1-(difluoromethyl)-1H-pyrazol-4-yl)amino)-5-fluoropyrimidin-4-yl)-N-(2,2,2-trifluoroethyl)-8-azabicyclo[3.2.1]oct-2-ene-8-carboxamide]	< 100 nM

Other lines, results leading:

IC50	SMILES
300 to 1000 nM	Cn1cc(Nc2nccc(C3=CC4CCC(C3)N4C(=O)C3(C#N)CC3)n2)cn1 (stereo not drawn) [Compound 63, 1-(3-(2-((1-methyl-1H-pyrazol-4-yl)amino)pyrimidin-4-yl)-8-azabicyclo[3.2.1]oct-2-ene-8-formyl)cyclopropane-1-carbonitrile]
100 to 300 nM	O=C([C@@H]1CC1(F)F)N1C2C=C(c3ccnc(Nc4cnn(C5CC5)c4)n3)CC1CC2 (stereo partly drawn) [Compound 36, (3-(2-((1-cyclopropyl-1H-pyrazol-4-yl)amino)pyrimidin-4-yl)-8-azabicyclo[3.2.1]oct-2-en-8-yl)((S)-2,2-difluorocyclopropyl)methanone]
< 100 nM	Cn1cc(Nc2nccc(C3=CC4CCC(C3)N4C(=O)C3CCC(F)(F)C3)n2)cn1 (stereo not drawn) [Compound 70, (3,3-difluorocyclopentyl)(3-(2-((1-methyl-1H-pyrazol-4-yl)amino)pyrimidin-4-yl)-8-azabicyclo[3.2.1]oct-2-en-8-yl)methanone]
> 1000 nM	COC1CC(C(=O)N2C3C=C(c4ccnc(Nc5cnn(C)c5)n4)CC2CC3)C1 (stereo not drawn) [Compound 80, (3-methoxycyclobutyl)(3-(2-((1-methyl-1H-pyrazol-4-yl)amino)pyrimidin-4-yl)-8-azabicyclo[3.2.1]oct-2-en-8-yl)methanone]
100 to 300 nM	CCn1cc(Nc2nccc(C3=CC4CCC(C3)N4C(=O)[C@@H]3CC3(F)F)n2)cn1 (stereo partly drawn) [Compound 45, ((S)-2,2-Difluorocyclopropyl)(3-(2-((1-ethyl-1H-pyrazol-4-yl)amino)pyrimidin-4-yl)-8-azabicyclo[3.2.1]oct-2-en-8-yl)methanone]
< 100 nM	Cn1cc(Nc2nccc(C3=CC4CCC(C3)N4C(=O)NCC(F)F)n2)cn1 (stereo not drawn) [Compound 44, N-(2,2-difluoroethyl)-3-(2-((1-methyl-1H-pyrazol-4-yl)amino)pyrimidin-4-yl)-8-azabicyclo[3.2.1]oct-2-ene-8-carboxamide]
300 to 1000 nM	Cn1cc(Nc2nccc(C3=CC4CCC(C3)N4C(=O)C3CC3c3ccccc3)n2)cn1 (stereo not drawn) [Compound 59]
< 100 nM	Cn1cc(Nc2nccc(C3=C[C@H]4CC[C@@H](C3)N4C(=O)NCC(F)(F)F)n2)cn1 [Compound 3-b, (1R,5S)-3-(2-((1-methyl-1H-pyrazol-4-yl)amino)pyrimidin-4-yl)-N-(2,2,2-trifluoroethyl)-8-azabicyclo[3.2.1]oct-2-ene-8-carboxamide]
100 to 300 nM	CC(C#N)C(=O)N1C2C=C(c3ccnc(Nc4cnn(C)c4)n3)CC1CC2 (stereo not drawn) [Compound 62, 2-methyl-3-(3-(2-((1-methyl-1H-pyrazol-4-yl)amino)pyrimidin-4-yl)-8-azabicyclo[3.2.1]oct-2-en-8-yl)-3-oxopropionitrile]
100 to 300 nM	Cn1cc(Nc2nccc(C3=CC4CCC(C3)N4C(=O)CC(F)(F)F)n2)cn1 (stereo not drawn) [Compound 65, 3,3,3-trifluoro-1-(3-(2-((1-methyl-1H-pyrazol-4-yl)amino)pyrimidin-4-yl)-8-azabicyclo[3.2.1]oct-2-en-8-yl)-1-acetone]
100 to 300 nM	Cn1cc(Nc2nccc(C3=CC4CCC(C3)N4C(=O)C3CC3(F)Cl)n2)cn1 (stereo not drawn) [Compound 50, (2-chloro-2-fluorocyclopropyl)(3-(2-((1-methyl-1H-pyrazol-4-yl)amino)pyrimidin-4-yl)-8-azabicyclo[3.2.1]oct-2-en-8-yl)methanone]
> 1000 nM	Cn1cc(Nc2nccc(C3=CC4CCC(C3)N4C(=O)c3ccc(C(F)(F)F)cc3)n2)cn1 (stereo not drawn) [Compound 16, (3-(2-((1-methyl-1H-pyrazol-4-yl)amino)pyrimidin-4-yl)-8-azabicyclo[3.2.1]oct-2-en-8-yl)(4-(trifluoromethyl)phenyl)methanone]
